Reference: patent US9187465B2, “Oxazole tyrosine kinase inhibitors” (Sareum Limited, priority 2007, dated 2015)
pIC50: −log10 of the molar value. Where a name gives a salt, the structure may show the parent alone.

Experiments:
Format in all cases: biochemical
[1] = biological target: T1, human FLT3 (Homo sapiens, UniProt P36888); assay: FLT3 kinase assay (DELFIA enzyme inhibition)
T1 construct: a construct expressing the human FLT3 (564-993) with an amino terminal GST tag; host or cells: Sf9 insect cells (baculovirus)
T1 sequence (P36888 564-993): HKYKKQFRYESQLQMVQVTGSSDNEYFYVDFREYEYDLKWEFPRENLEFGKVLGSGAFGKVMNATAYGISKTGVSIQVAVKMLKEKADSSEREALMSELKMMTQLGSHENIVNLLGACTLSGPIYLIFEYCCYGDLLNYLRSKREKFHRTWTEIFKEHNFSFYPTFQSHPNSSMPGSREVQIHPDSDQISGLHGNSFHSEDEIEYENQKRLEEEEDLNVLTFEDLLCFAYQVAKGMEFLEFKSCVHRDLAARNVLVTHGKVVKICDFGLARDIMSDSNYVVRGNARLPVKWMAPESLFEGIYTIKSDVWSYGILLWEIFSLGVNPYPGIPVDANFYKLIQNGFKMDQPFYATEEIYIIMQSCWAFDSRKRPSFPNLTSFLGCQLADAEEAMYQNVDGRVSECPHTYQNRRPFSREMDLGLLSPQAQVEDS
Method: A GST-kinase fusion protein of 70 KDa was produced using sf9 baculovirus expression system, with a construct expressing the human FLT3 (564-993) with an amino terminal GST tag. The protein was purified by one-step affinity chromatography using glutathione-agarose.
FLT3 enzyme activity is determined using a Dissociation Enhanced Lanthanide Fluorescent Immunoassay (DELFIA) with a peptide substrate derived from the Gastrin Precursor (Tyr 87) peptide […] with a core sequence: EAYGW.
The amount of phosphorylated peptide produced is detected by means of a phospho-Tyrosine specific Europium-labelled antibody using Time-Resolved Fluorescence at Excitation 360-35 nm and Emission 620-35 nm.
Assay reactions are set up in a 25 uL final volume on a 96 well plate. […] The reaction is allowed to proceed for 30 minutes at room temperature before stopping with 100 μL Stop solution comprising of 100 mM EDTA, 1×BSA blocker in TBS (Perbio) and 0.05% Surfact-Amps20 (Perbio).
The stopped reaction is transferred to a black 96-well Neutravidin-coated plate (Perbio) and incubated for 30 minutes to capture the biotinylated peptide substrate. After washing wells 3 times with 200 uL TBS/T buffer, Anti-Phospho-Tyr-100 antibody labelled with Eu—N1 (Perkin Elmer AD0159) is added to all wells for 60 minutes at room temperature. After a repeat washing step, DELFIA Enhancement solution (Perkin Elmer) is added to all wells for 5 minutes and the fluorescence measured on a plate reader Analyst HT (Molecular Devices).
The % inhibition of the activity is calculated and plotted in order to determine the concentration of test compound required to inhibit 50% of the enzyme activity (IC50).

[2] = biological target: T2, human FLT4 (Homo sapiens, UniProt P35916); assay: FLT4 kinase assay (DELFIA enzyme inhibition); settings: read-out: FLT4 IC50
T2 construct: a construct expressing the human FLT4 (789-1207) with an amino terminal GST tag; host or cells: Sf9 insect cells (baculovirus)
T2 sequence (P35916 789-1207): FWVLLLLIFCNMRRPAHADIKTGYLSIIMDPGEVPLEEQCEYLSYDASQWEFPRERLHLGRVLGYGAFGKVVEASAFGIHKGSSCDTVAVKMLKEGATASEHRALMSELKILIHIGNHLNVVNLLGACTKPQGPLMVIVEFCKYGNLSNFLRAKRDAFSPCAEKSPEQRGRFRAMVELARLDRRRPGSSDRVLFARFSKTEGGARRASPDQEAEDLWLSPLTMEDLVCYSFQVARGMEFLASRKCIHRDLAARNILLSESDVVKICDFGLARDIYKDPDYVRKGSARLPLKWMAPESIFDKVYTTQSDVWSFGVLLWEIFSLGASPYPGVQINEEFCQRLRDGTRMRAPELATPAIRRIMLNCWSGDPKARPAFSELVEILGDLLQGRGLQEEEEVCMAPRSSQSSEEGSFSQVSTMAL
Outline: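 Read-out is DELFIA: biotinylated MET Tyr1253-derived peptide captured on Neutravidin, phosphotyrosine detected by Eu-antibody time-resolved fluorescence. Enzyme is Sf9-expressed GST-FLT4 (789-1207), reacting 30 min at room temperature before EDTA stop. IC50 derived from plotted % inhibition.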

[3] = biological target: T3, human Aurora A (Homo sapiens, UniProt O14965); assay: Aurora A kinase assay (DELFIA enzyme inhibition); settings: read-out: Aurora A IC50
T3 construct: Histidine tag (N); host or cells: Sf9 insect cells (baculovirus)
T3 sequence (O14965 1-403): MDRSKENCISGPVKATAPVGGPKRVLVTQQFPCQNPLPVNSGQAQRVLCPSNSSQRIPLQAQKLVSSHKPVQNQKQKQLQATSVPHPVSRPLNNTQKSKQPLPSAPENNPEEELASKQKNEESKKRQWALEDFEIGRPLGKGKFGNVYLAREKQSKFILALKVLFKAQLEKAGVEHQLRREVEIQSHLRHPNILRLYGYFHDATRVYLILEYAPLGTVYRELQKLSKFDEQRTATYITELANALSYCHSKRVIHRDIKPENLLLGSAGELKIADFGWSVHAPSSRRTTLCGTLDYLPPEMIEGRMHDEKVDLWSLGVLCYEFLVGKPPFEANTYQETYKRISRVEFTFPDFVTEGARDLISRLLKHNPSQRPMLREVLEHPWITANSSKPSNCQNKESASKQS
Outline: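 DELFIA read-out (time-resolved Eu fluorescence, 620 nm emission) after Neutravidin capture of biotinylated peptide substrate and antibody detection. Reaction: Ni-agarose-purified Aurora A, 30 min at room temperature, stopped with 100 mM EDTA.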

Row | pIC50 [1] | pIC50 [2] | pIC50 [3] | Compound
1 | > 5.00 | > 5.00 | > 5.00 | NC(=O)c1nc(-c2c(F)cccc2F)oc1-c1ccc(OCCN2CCNC(=O)C2)cc1 [Example S-9, 2-(2,6-difluorophenyl)-5-(4-(2-(3-oxopiperazin-1-yl)ethoxy)phenyl)oxazole-4-carboxamide]
2 | > 5.00 | > 5.00 | > 4.00 | COc1ccc(-c2oc(-c3cccc4[nH]ccc34)nc2C(N)=O)cc1 [Example M-4, 2-(1H-indol-4-yl)-5-(4-methoxyphenyl)oxazole-4-carboxamide]
3 | > 4.00 | > 4.00 | > 4.00 | COc1ccc(-c2oc(-c3cccc(C(F)(F)F)c3F)nc2C(N)=O)cc1 [Example N-7, 2-(2-fluoro-3-(trifluoromethyl)phenyl)-5-(4-methoxyphenyl)oxazole-4-carboxamide]
4 | > 4.00 | > 5.00 | > 5.00 | CN1CCN(Cc2ccc(-c3oc(-c4c(F)cccc4F)nc3C(N)=O)cc2)CC1 [Example F-10, 2-(2,6-difluorophenyl)-5-(4-((4-methylpiperazin-1-yl)methyl)phenyl)oxazole-4-carboxamide]
5 | > 4.00 | > 5.00 | > 5.00 | NC(=O)c1nc(-c2c(F)cccc2F)oc1-c1ccc(COCCN2CCOCC2)cc1 [Example F-12, 2-(2,6-difluorophenyl)-5-(4-((2-morpholinoethoxy)methyl)phenyl)oxazole-4-carboxamide]
6 | > 5.00 | > 5.00 | > 5.00 | NC(=O)c1nc(-c2c(F)cccc2F)oc1Nc1cccc(N2CCNCC2)c1 [Example Q-12, 2-(2,6-difluorophenyl)-5-(3-(piperazin-1-yl)phenylamino)oxazole-4-carboxamide formate salt]
7 | > 4.00 | > 5.00 | > 5.00 | NC(=O)c1nc(-c2c(F)cccc2F)oc1-c1ccc(OCCN2CCC[C@H]2CO)cc1 [Example S-5, (S)-2-(2,6-difluorophenyl)-5-(4-(2-(2-(hydroxymethyl)pyrrolidin-1-yl)ethoxy)phenyl)oxazole-4-carboxamide]
8 | > 5.00 | > 5.00 | > 5.00 | NC(=O)c1nc(-c2c(F)cccc2F)oc1-c1ccc(OCC(O)CN2CCOCC2)cc1 (stereo not drawn) [Example T-2, 2-(2,6-difluorophenyl)-5-(4-(2-hydroxy-3-morpholinopropoxy)phenyl)oxazole-4-carboxamide]
9 | > 5.00 | > 5.00 | > 5.00 | NC(=O)c1nc(-c2c(F)cccc2F)oc1Nc1ccc(C(=O)NCCCO)cc1 [Example U-17, 5-(4-((3-hydroxypropyl)carbamoyl)phenylamino)-2-(2,6-difluorophenyl)oxazole-4-carboxamide]

More lines, now with the values behind:

Row | Compound | pIC50 [1] | pIC50 [2] | pIC50 [3]
10 | CN1CCN(c2ccc(-c3oc(-c4c(F)cccc4F)nc3C(N)=O)cn2)CC1 [Example H-2, 2-(2,6-difluorophenyl)-5-(6-(4-methylpiperazin-1-yl)pyridin-3-yl)oxazole-4-carboxamide] | > 5.00 | > 5.00 | > 5.00
11 | CS(=O)(=O)c1ccc(Nc2oc(-c3cccc4[nH]ncc34)nc2C(N)=O)cc1 [Example Q-58, 2-(1H-indazol-4-yl)-5-(4-(methylsulfonyl)phenylamino)oxazole-4-carboxamide] | > 5.00 | > 5.00 | > 5.00
12 | CC(C)(C)OC(=O)NCC1CN(C(=O)c2ccc(Nc3oc(-c4c(F)cccc4F)nc3C(N)=O)cc2)CCO1 (stereo not drawn) [Example U-22, tert-butyl (4-(4-(4-carbamoyl-2-(2,6-difluorophenyl)oxazol-5-ylamino)benzoyl)morpholin-2-yl)methylcarbamate] | > 5.00 | > 5.00 | > 5.00
13 | NC(=O)c1nc(-c2c(F)cccc2F)oc1-c1ccc(OCCN2CCC[C@@H]2CO)cc1 [Example S-6, (R)-2-(2,6-difluorophenyl)-5-(4-(2-(2-(hydroxymethyl)pyrrolidin-1-yl)ethoxy)phenyl)oxazole-4-carboxamide] | > 5.00 | > 5.00 | > 5.00
14 | COc1ccc(-c2oc(Nc3ccccc3OC)nc2C(N)=O)cc1 [Example R-2, 5-(4-methoxyphenyl)-2-(2-methoxyphenylamino)oxazole-4-carboxamide] | > 5.00 | > 5.00 | > 5.00
15 | NC(=O)c1nc(-c2c(F)cccc2F)oc1Nc1ccc(CN2CCCCC2)cc1 [Example Q-56, 2-(2,6-difluorophenyl)-5-(4-(piperidin-1-ylmethyl)phenylamino)oxazole-4-carboxamide] | > 5.00 | > 5.00 | > 5.00
16 | NC(=O)c1nc(-c2c(F)cccc2F)oc1Nc1ccc(OC2CCNCC2)cc1 [Example Q-16, 2-(2,6-difluorophenyl)-5-(4-(piperidin-4-yloxy)phenylamino)oxazole-4-carboxamide] | > 5.00 | > 5.00 | > 5.00
17 | NC(=O)c1nc(-c2c(F)cccc2F)oc1Nc1ccc(S(=O)(=O)N2CCOCC2)cc1 [Example Q-29, 2-(2,6-difluorophenyl)-5-(4-(morpholinosulfonyl)phenylamino)oxazole-4-carboxamide] | > 5.00 | > 5.00 | > 5.00
18 | NC(=O)c1nc(-c2ccccc2F)oc1Nc1ccc(N2CCOCC2)cc1 [Example Q-23, 2-(2-Fluorophenyl)-5-(4-morpholinophenylamino)oxazole-4-carboxamide] | > 5.00 | > 5.00 | > 5.00
19 | CC(=O)N1CCN(c2ccc(-c3oc(-c4c(F)cccc4F)nc3C(N)=O)cc2)CC1 [Example I-1, 5-(4-(4-acetylpiperazin-1-yl)phenyl)-2-(2,6-difluorophenyl)oxazole-4-carboxamide] | > 5.00 | > 5.00 | > 5.00
20 | NC(=O)c1nc(-c2cccc3[nH]ncc23)oc1Nc1ccc(N2CCN(C(=O)C(F)(F)F)CC2)cc1 [Example Q-60, 2-(1H-indazol-4-yl)-5-(4-(4-(2,2,2-trifluoroacetyl)piperazin-1-yl)phenylamino)oxazole-4-carboxamide] | > 5.00 | > 5.00 | > 5.00
21 | COc1cccc(Nc2nc(C(N)=O)c(-c3ccc(N4CCNCC4)cc3)o2)c1 [Example R-12, 2-(3-methoxyphenylamino)-5-(4-(piperazin-1-yl)phenyl)oxazole-4-carboxamide] | > 5.00 | > 5.00 | > 5.00
22 | NC(=O)c1nc(-c2c(F)cccc2F)oc1Nc1ccc(C(=O)N2CCCCC2CO)cc1 (stereo not drawn) [Example U-14, 2-(2,6-difluorophenyl)-5-(4-(2-(hydroxymethyl)piperidine-1-carbonyl)phenylamino) oxazole-4-carboxamide] | > 5.00 | > 5.00 | > 5.00
23 | NC(=O)c1nc(-c2c(F)cccc2F)oc1Nc1ccc(C2=NNC(=O)C2)cc1 [Example Q-32, 2-(2,6-difluorophenyl)-5-(4-(5-oxo-4,5-dihydro-1H-pyrazol-3-yl)phenylamino)oxazole-4-carboxamide] | > 5.00 | > 5.00 | > 5.00
